# According to patent US20210107874A1, “PHARMACEUTICAL FORMULATION OF CROTONYLAMINOPYRIDINE SALT” (priority 2017, published 2021):
# Read-outs that look alike come from different tables or passages of the source.
# Columns and labels:
# Type in all cases: physicochemical
# [1] = Solubility of synthesized tartrate salt and free base of compound 4; settings: free base; read-out: solubility
# Procedure: The free base of compound 4 has a solubility of 0.8 mg/ml
# [2] = Formulation with 10% compound 5: stability of clear solution; settings: 10% formulation (~100 mg/ml)
# [3] = Visual solubility test of compound 5 in aqueous acid solution
# Procedure: A visual solubility test (100 μL) at a series of target concentrations of 50, 100 or 200 mg/mL of compound 5 in aqueous acid solution was performed.
# In a 96 well plate (400-600 μL), compound 5 was dispensed (5, 10, or 20 mg per well), acid was added (100 μl of a 350 mM solution in water to each well) and the mixtures were equilibrated at 25° C. with stirring. Solubility was checked by visual inspection after 30 min and after one day.
# [4] = Quantitative determination of solubility of compound 5 (UPLC); settings: 25 °C, aqueous buffer, thermodynamic from solid
# Procedure: Compound 5 (120 mg) was weighed into shell vials and combined with acid (600 μl of a 350 mM solution of the respective acid in water).
# [5] = Acetic Acid 350 mM in water, 25° C.
# [6] = Ethanesulfonic Acid 350 mM in water
# [7] = Glucuronic Acid 350 mM in water
# [8] = Glutamic Acid 350 mM in water, 25° C.
# [9] = Methanesulfonic Acid 350 mM in water
# [10] = Methanesulfonic Acid 350 mM in water, 25° C.
# [11] = Nicotinic Acid 350 mM in water, 25° C.
# [12] = Oxoglutaric Acid 350 mM in water
# [13] = lsethionic Acid 350 mM in water
# [14] = lsethionic Acid 350 mM in water, 25° C.
compound,measurement,setting,value
"CCOc1cc(NCCNC(=O)/C=C/C(F)(F)F)ccn1 [Compound 4, (E)-N-[2-[(2-ethoxy-4-pyridyl)amino]ethyl]-4,4,4-trifluoro-but-2-enamide]",solubility,[1],0.8 mg/mL
COc1cc(NCCNC(=O)/C=C/C(C)(F)F)ccn1 [Compound 5],stability (remains clear solution),"[2]; pH of 4.4, equimolar Citric acid",3 months
same,stability (remains clear solution),"[2]; pH of 4.4, equimolar Malic acid",3 months
same,stability (remains clear solution),"[2]; pH of 4.4, equimolar Tartaric acid",3 months
same,pH for 50 mg/mL,[3]; Acetic Acid 350 mM in water,5.09
same,pH for 100 mg/mL,[3]; Acetic Acid 350 mM in water,5.02
same,pH for 200 mg/mL,[3]; Acetic Acid 350 mM in water,5.06
same,Range at 1 Day,[3]; [5],<58 mg/mL
same,Range at 30 mins.,[3]; [5],<58 mg/mL
same,pH for 50 mg/mL,[3]; Benzoic Acid 350 mM in water,4.94
same,pH for 100 mg/mL,[3]; Benzoic Acid 350 mM in water,5.23
same,pH for 200 mg/mL,[3]; Benzoic Acid 350 mM in water,5.20
same,pH for 50 mg/mL,[3]; Citric Acid 350 mM in water,3.36
same,pH for 100 mg/mL,[3]; Citric Acid 350 mM in water,4.06
same,pH for 200 mg/mL,[3]; Citric Acid 350 mM in water,4.84
same,pH for 50 mg/mL,[3]; [6],0.96
same,pH for 100 mg/mL,[3]; [6],1.17
same,pH for 200 mg/mL,[3]; [6],4.99
same,pH for 50 mg/mL,[3]; Fumaric Acid 350 mM in water,3.59
same,pH for 100 mg/mL,[3]; Fumaric Acid 350 mM in water,3.89
same,pH for 200 mg/mL,[3]; Fumaric Acid 350 mM in water,4.86
same,pH for 50 mg/mL,[3]; [7],3.60
same,pH for 100 mg/mL,[3]; [7],4.86
same,pH for 200 mg/mL,[3]; [7],4.80
same,pH for 50 mg/mL,[3]; Glutamic Acid 350 mM in water,5.11
same,pH for 100 mg/mL,[3]; Glutamic Acid 350 mM in water,5.05
same,pH for 200 mg/mL,[3]; Glutamic Acid 350 mM in water,5.14
same,Range at 1 Day,[3]; [8],<53 mg/mL
same,Range at 30 mins.,[3]; [8],<53 mg/mL
same,pH for 50 mg/mL,[3]; Lactic Acid 350 mM in water,4.50
same,pH for 100 mg/mL,[3]; Lactic Acid 350 mM in water,4.88
same,pH for 200 mg/mL,[3]; Lactic Acid 350 mM in water,4.94
same,pH for 50 mg/mL,[3]; Malic Acid 350 mM in water,3.68
same,pH for 100 mg/mL,[3]; Malic Acid 350 mM in water,4.45
same,pH for 200 mg/mL,[3]; Malic Acid 350 mM in water,4.78
same,pH for 50 mg/mL,[3]; [9],7.60
same,pH for 100 mg/mL,[3]; [9],7.61
same,pH for 200 mg/mL,[3]; [9],7.31
same,Range at 1 Day,[3]; [10],<52 mg/mL
same,Range at 30 mins.,[3]; [10],<52 mg/mL
same,pH for 50 mg/mL,[3]; Nicotinic Acid 350 mM in water,"5,25"
same,pH for 100 mg/mL,[3]; Nicotinic Acid 350 mM in water,5.15
same,pH for 200 mg/mL,[3]; Nicotinic Acid 350 mM in water,5.16
same,Range at 1 Day,[3]; [11],<74 mg/mL
same,Range at 30 mins.,[3]; [11],<74 mg/mL
same,pH for 50 mg/mL,[3]; Oxalic Acid 350 mM in water,1.81
same,pH for 100 mg/mL,[3]; Oxalic Acid 350 mM in water,3.27
same,pH for 200 mg/mL,[3]; Oxalic Acid 350 mM in water,4.81
same,pH for 50 mg/mL,[3]; [12],2.66
same,pH for 100 mg/mL,[3]; [12],4.17
same,pH for 200 mg/mL,[3]; [12],4.89
same,pH for 50 mg/mL,[3]; Succinic Acid 350 mM in water,4.57
same,pH for 100 mg/mL,[3]; Succinic Acid 350 mM in water,5.01
same,pH for 200 mg/mL,[3]; Succinic Acid 350 mM in water,4.99
same,pH for 50 mg/mL,[3]; Tartaric Acid 350 mM in water,2.92
same,pH for 100 mg/mL,[3]; Tartaric Acid 350 mM in water,3.71
same,pH for 200 mg/mL,[3]; Tartaric Acid 350 mM in water,4.70
same,solubility at 30 min,"[3]; aqueous acid solution, aqueous buffer, thermodynamic from solid, Benzoic Acid 350 mM in water, 25° C., read-out: Range at 30 mins.",< 49 mg/mL
same,pH for 50 mg/mL,[3]; [13],7.83
same,pH for 100 mg/mL,[3]; [13],7.85
same,pH for 200 mg/mL,[3]; [13],7.93
same,Range at 1 Day,[3]; [14],<52 mg/mL
same,Range at 30 mins.,[3]; [14],<52 mg/mL
same,solubility (in words),"[3]; with nicotinic acid, methanesulfonic acid, isethionic acid, benzoic acid, acetic acid and glutamic acid",poor solubility
same,solubility (in words),"[3]; with tartaric acid, fumaric acid, citric acid, malic acid, oxalic acid, oxoglutaric acid and ethanesulfonic acid",good solubility
same,solubility at 1 day,"[4]; aqueous acid solution (350 mM citric acid in water), Citric acid 350 mM in water, read-out: Solubility T = 1 Day",160 mg/mL
same,solubility at 1 day,"[4]; aqueous acid solution (350 mM citric acid in water), Citric acid 350 mM in water, read-out: Solubility T = 1 Day Average",149 mg/mL
same,solubility at 3 days,"[4]; aqueous acid solution (350 mM citric acid in water), Citric acid 350 mM in water, read-out: Solubility T = 3 Days",153 mg/mL
same,solubility at 3 days,"[4]; aqueous acid solution (350 mM citric acid in water), Citric acid 350 mM in water, read-out: Solubility T = 3 Days Average",151 mg/mL
same,solubility at 1 day,"[4]; aqueous acid solution (350 mM ethanesulfonic acid in water), Ethanesulfonic acid 350 mM in water, read-out: Solubility T = 1 Day",155 mg/mL
same,solubility at 1 day,"[4]; aqueous acid solution (350 mM ethanesulfonic acid in water), Ethanesulfonic acid 350 mM in water, read-out: Solubility T = 1 Day Average",145 mg/mL
same,solubility at 3 days,"[4]; aqueous acid solution (350 mM ethanesulfonic acid in water), Ethanesulfonic acid 350 mM in water, read-out: Solubility T = 3 Days",167 mg/mL
same,solubility at 3 days,"[4]; aqueous acid solution (350 mM ethanesulfonic acid in water), Ethanesulfonic acid 350 mM in water, read-out: Solubility T = 3 Days Average",165 mg/mL
same,solubility at 1 day,"[4]; aqueous acid solution (350 mM fumaric acid in water), Fumaric acid 350 mM in water, read-out: Solubility T = 1 Day",152 mg/mL
same,solubility at 1 day,"[4]; aqueous acid solution (350 mM fumaric acid in water), Fumaric acid 350 mM in water, read-out: Solubility T = 1 Day Average",149 mg/mL
same,solubility at 3 days,"[4]; aqueous acid solution (350 mM fumaric acid in water), Fumaric acid 350 mM in water, read-out: Solubility T = 3 Days",140 mg/mL
same,solubility at 3 days,"[4]; aqueous acid solution (350 mM fumaric acid in water), Fumaric acid 350 mM in water, read-out: Solubility T = 3 Days Average",153 mg/mL
same,solubility at 1 day,"[4]; aqueous acid solution (350 mM malic acid in water), Malic acid 350 mM in water, read-out: Solubility T = 1 Day",129 mg/mL
same,solubility at 1 day,"[4]; aqueous acid solution (350 mM malic acid in water), Malic acid 350 mM in water, read-out: Solubility T = 1 Day Average",122 mg/mL
same,solubility at 3 days,"[4]; aqueous acid solution (350 mM malic acid in water), Malic acid 350 mM in water, read-out: Solubility T = 3 Days",117 mg/mL
same,solubility at 3 days,"[4]; aqueous acid solution (350 mM malic acid in water), Malic acid 350 mM in water, read-out: Solubility T = 3 Days Average",116 mg/mL
same,solubility at 1 day,"[4]; aqueous acid solution (350 mM oxalic acid in water), Oxalic acid 350 mM in water, read-out: Solubility T = 1 Day",149 mg/mL
same,solubility at 1 day,"[4]; aqueous acid solution (350 mM oxalic acid in water), Oxalic acid 350 mM in water, read-out: Solubility T = 1 Day Average",142 mg/mL
same,solubility at 3 days,"[4]; aqueous acid solution (350 mM oxalic acid in water), Oxalic acid 350 mM in water, read-out: Solubility T = 3 Days",155 mg/mL
same,solubility at 3 days,"[4]; aqueous acid solution (350 mM oxalic acid in water), Oxalic acid 350 mM in water, read-out: Solubility T = 3 Days Average",155 mg/mL
same,solubility at 1 day,"[4]; aqueous acid solution (350 mM oxoglutaric acid in water), Oxoglutaric acid 350 mM in water, read-out: Solubility T = 1 Day",128 mg/mL
same,solubility at 1 day,"[4]; aqueous acid solution (350 mM oxoglutaric acid in water), Oxoglutaric acid 350 mM in water, read-out: Solubility T = 1 Day Average",129 mg/mL
same,solubility at 3 days,"[4]; aqueous acid solution (350 mM oxoglutaric acid in water), Oxoglutaric acid 350 mM in water, read-out: Solubility T = 3 Days",135 mg/mL
same,solubility at 3 days,"[4]; aqueous acid solution (350 mM oxoglutaric acid in water), Oxoglutaric acid 350 mM in water, read-out: Solubility T = 3 Days Average",134 mg/mL
same,solubility at 1 day,"[4]; aqueous acid solution (350 mM tartaric acid in water), Tartaric acid 350 mM in water, read-out: Solubility T = 1 Day",117 mg/mL
same,solubility at 1 day,"[4]; aqueous acid solution (350 mM tartaric acid in water), Tartaric acid 350 mM in water, read-out: Solubility T = 1 Day Average",137 mg/mL
same,solubility at 3 days,"[4]; aqueous acid solution (350 mM tartaric acid in water), Tartaric acid 350 mM in water, read-out: Solubility T = 3 Days",162 mg/mL
same,solubility at 3 days,"[4]; aqueous acid solution (350 mM tartaric acid in water), Tartaric acid 350 mM in water, read-out: Solubility T = 3 Days Average",163 mg/mL
